# Reference: article PMC9400670, “Establishing the selective phospholipid membrane coordination, permeation and lysis properties for a series of ‘druggable’ supramolecular self-associating antimicrobial amphiphiles” (Chemical Science, 2022)
# pEC50: −log10 of the molar value. Like-named read-outs stand apart in the source and are kept apart here.
# How the values were obtained:
# Assay type in all cases: binding
# Conditions in all cases: SSA 100 µM
# PG nanodiscs = test: Phospholipid nanodisc 1H NMR CPMG coordination assay, PG nanodiscs
# From the text: (§1) Finally, to establish how any single SSA structural variation affects the coordination of an individual salt component to the surface of a phospholipid membrane, the binding of the anionic and cationic components of SSAs 5–12 with nanodiscs comprised of PC, PG or the PE : PG mix (Table 2) was studied. Nanodiscs were synthesised from synthetic vesicles of the relevant phospholipid composition. For full synthetic procedures and nanodisc characterisation please see ESI (Section 13). ^†[34,35]
# (§2) Styrene-maleic acid (SMA) nanodiscs are small biomimetic scaffolds with a hydrodynamic diameter ≈ 10 nm. They consist of a single disc-shaped planar phospholipid bilayer, ‘belted’ in this instance with a synthetic SMA co-polymer. Here nanodiscs of a specific phospholipid composition were titrated against a solution of SSAs 5–12 (0.10 mM) in a sodium phosphate buffer (20 mM) with NaCl (20 mM) at pH 7.4. This solution was supplemented with 5% D2O, to enable NMR locking and 4,4-dimethyl4-silapentane-1-sulfonic acid (DSS – 0.02 mM) to act as an internal standard. The nanodiscs were then titrated against the SSA, while the SSA concentration was maintained as constant, well below the CMC (Table 3).[38] A 1D ^1H NMR with a Carr–Purcell–Meiboom–Gill sequence (CPMG) filter (300 ms),[36,48] modified with a watergate element was then obtained for each experimental data point. The watergate element was used to allow suppression of the water signal, whereas the CPMG filter enabled the suppression of those resonances from molecular species with long correlation times, which in this instance correlate to the signals of those SSAs coordinated to the nanodisc, rather than those which exist as free species in solution. Comparative integration of the resonances corresponding to the SSA cation or anion, standardised against the DSS internal standard, permits the percentage of the individual SSA components coordinated to the phospholipid nanodisc to be established with respect to increasing nanodisc concentration.
# (§3) However, when considering the 1/EC50 for the SSA cationic component (Fig. 10b), the reverse is true. This is perhaps expected, but nevertheless despite the identical experimental conditions, including the same TBA counter cation across SSAs 5–12, there is a marked difference in the 1/EC50 obtained, where the only difference is the SSA anion present. This is most noticeable for the series of SSA titrations involving the PE : PG mix (Table 2) nanodiscs. The only variation within this set of titrations is the structure of the SSA anion; we therefore conclude that the SSA anion is influencing SSA cation nanodisc coordination events. This observation provides evidence for the presence of further complex interactions informing SSA:nanodisc coordination processes. […]
# (§4) Data were acquired in endpoint mode. All experiments were repeated in triplicate […]
# (§5) Nanodisc preparation: Lipid films were resuspended in Buffer (20 mM NaCl, 20 mM NaH 2PO4, pH 7.4) and sonicated for 1 hour, at a 5:1 ratio, SMA was added and incubated at 37 °C for 1 hour. Dialysed overnight in 5 L of the same buffer in 10 KDa cut-off dialysis tubing, concentrated, and underwent gel filtration size exclusion chromatography on a Superdex 200 10/300 GL column (GE Healthcare) in the same buffer, whilst monitoring absorbance at 260 nm. Nanodisc quantification carried out via monitoring of absorbance at 260 nm using a calibration curve.2
# (§6) 1H NMR CPMG: 1H NMR CPMG3,4 spectra were obtained with a Bruker Avance III […] spectrometer equipped with a TCIP cryoprobe at 298 K. Samples were supplemented with 5 % D 2O and 0.02 mM 4,4-dimethyl4-silapentane-1-sulfonic acid (DSS). The standard zgprcpmg pulse sequence from the Bruker library was modified with a watergate element to allow suppressi on of the water signal and was used for all experiments. Although this sequence is readily obtainable, we are happy to provide it on request. The P1 pulses were 9 µs at a power of 7.9 W. Presaturation was applied between […]
# PE:PG mix nanodiscs = test: Phospholipid nanodisc 1H NMR CPMG coordination assay, PE:PG mix nanodiscs
# From the text: as §1, §2, §3, §4, §5, §6
# PC nanodiscs = test: Phospholipid nanodisc 1H NMR CPMG coordination assay, PC nanodiscs
# From the text: as §1, §2, §3, §4, §5, §6
# [1] = concentration of nanodisc coordinating 50 % of the SSA anion, Hill Plot fit, Vmax fixed 100 %, read-out: EC50 PE:PG mix, anionic SSA component
# [2] = concentration of nanodisc coordinating 50 % of the SSA cation, Hill Plot fit, Vmax fixed 100 %, read-out: EC50 PE:PG mix, cationic SSA component
# [3] = concentration of nanodisc coordinating 50 % of the SSA anion, Hill Plot fit, Vmax fixed 100 %, read-out: EC50 PC, anionic SSA component
# [4] = concentration of nanodisc coordinating 50 % of the SSA anion, Hill Plot fit, Vmax fixed 100 %, read-out: EC50 PG, anionic SSA component
# [5] = concentration of nanodisc coordinating 50 % of the SSA cation, Hill Plot fit, Vmax fixed 100 %, read-out: EC50 PG, cationic SSA component
# [6] = experimental endpoint 4.00 µM nanodisc, read-out: EC50 PC, cationic SSA component
Structure (SMILES),"pEC50 (PG nanodiscs; experimental endpoint 4.00 µM nanodisc, read-out: EC50 PG, cationic SSA component)",pEC50 (PE:PG mix nanodiscs; [1]),pEC50 (PE:PG mix nanodiscs; [2]),pEC50 (PC nanodiscs; [3]),pEC50 (PG nanodiscs; [4]),pEC50 (PG nanodiscs; [5]),"pEC50 (PE:PG mix nanodiscs; experimental endpoint 4.00 µM nanodisc, read-out: EC50 PE:PG mix, cationic SSA component)",pEC50 (PC nanodiscs; [6]),"pEC50 (PC nanodiscs; concentration of nanodisc coordinating 50 % of the SSA cation, Hill Plot fit, Vmax fixed 100 %, read-out: EC50 PC, cationic SSA component)"
O=C(NCS(=O)(=O)O)Nc1ccccc1-c1nc2ccccc2s1 [SSA 5],< 5.40,5.94,6.03,–,–,–,–,–,–
Cc1ccc2nc(NC(=O)NCS(=O)(=O)O)sc2c1 [SSA 7],–,–,5.46,–,–,5.47,–,–,–
O=C(NCS(=O)(=O)O)Nc1ccc(-c2nc3ccccc3s2)cc1 [SSA 8],–,5.66,–,5.58,–,5.51,–,–,–
Cc1ccc2nc(-c3ccc(NC(=O)NCCC(=O)O)cc3)sc2c1 [SSA 9],–,6.14,–,6.57,5.97,5.57,–,< 5.40,–

# Further compounds by rising pEC50 (PE:PG mix nanodiscs; [1]), results first:
"pEC50 (PG nanodiscs; experimental endpoint 4.00 µM nanodisc, read-out: EC50 PG, cationic SSA component)",pEC50 (PE:PG mix nanodiscs; [1]),pEC50 (PE:PG mix nanodiscs; [2]),pEC50 (PC nanodiscs; [3]),pEC50 (PG nanodiscs; [4]),pEC50 (PG nanodiscs; [5]),"pEC50 (PE:PG mix nanodiscs; experimental endpoint 4.00 µM nanodisc, read-out: EC50 PE:PG mix, cationic SSA component)",pEC50 (PC nanodiscs; [6]),"pEC50 (PC nanodiscs; concentration of nanodisc coordinating 50 % of the SSA cation, Hill Plot fit, Vmax fixed 100 %, read-out: EC50 PC, cationic SSA component)",Structure (SMILES)
–,6.14,5.60,6.31,5.68,5.55,–,–,–,Cc1ccc2nc(-c3ccc(NC(=O)NCC(=O)O)cc3)sc2c1 [SSA 11]
–,6.30,5.53,6.44,6.30,5.94,–,< 5.40,–,Cc1ccc2nc(-c3ccc(NC(=O)NCCCS(=O)(=O)O)cc3)sc2c1 [SSA 10]
–,6.34,–,6.44,6.09,5.54,< 5.40,–,–,Cc1ccc2nc(-c3ccc(NC(=O)NCS(=O)(=O)O)cc3)sc2c1 [SSA 6]
–,6.59,6.43,6.85,6.54,6.05,–,–,5.65,Cc1ccc2nc(-c3ccc(NC(=S)NCS(=O)(=O)O)cc3)sc2c1 [SSA 12]
